Measurements from ChEMBL document CHEMBL4219138, “Discovery of N-aryl-N'-pyrimidin-4-yl ureas as irreversible L858R/T790M mutant selective epidermal growth factor receptor inhibitors” (Bioorg Med Chem Lett, 2018).

Columns and labels:
[1] = target: T1, Epidermal growth factor receptor (Homo sapiens, UniProt P00533); assay: Inhibition of recombinant human GST-tagged wild-type EGFR cytoplasmic domain (668 to 1210 residues) expressed in baculovirus expression system using tyrosine04 peptide as substrate after 60 mins in presence of ATP by Z-LYTE assay
T1 sequence (P00533 whole entry, the tested form may be a part): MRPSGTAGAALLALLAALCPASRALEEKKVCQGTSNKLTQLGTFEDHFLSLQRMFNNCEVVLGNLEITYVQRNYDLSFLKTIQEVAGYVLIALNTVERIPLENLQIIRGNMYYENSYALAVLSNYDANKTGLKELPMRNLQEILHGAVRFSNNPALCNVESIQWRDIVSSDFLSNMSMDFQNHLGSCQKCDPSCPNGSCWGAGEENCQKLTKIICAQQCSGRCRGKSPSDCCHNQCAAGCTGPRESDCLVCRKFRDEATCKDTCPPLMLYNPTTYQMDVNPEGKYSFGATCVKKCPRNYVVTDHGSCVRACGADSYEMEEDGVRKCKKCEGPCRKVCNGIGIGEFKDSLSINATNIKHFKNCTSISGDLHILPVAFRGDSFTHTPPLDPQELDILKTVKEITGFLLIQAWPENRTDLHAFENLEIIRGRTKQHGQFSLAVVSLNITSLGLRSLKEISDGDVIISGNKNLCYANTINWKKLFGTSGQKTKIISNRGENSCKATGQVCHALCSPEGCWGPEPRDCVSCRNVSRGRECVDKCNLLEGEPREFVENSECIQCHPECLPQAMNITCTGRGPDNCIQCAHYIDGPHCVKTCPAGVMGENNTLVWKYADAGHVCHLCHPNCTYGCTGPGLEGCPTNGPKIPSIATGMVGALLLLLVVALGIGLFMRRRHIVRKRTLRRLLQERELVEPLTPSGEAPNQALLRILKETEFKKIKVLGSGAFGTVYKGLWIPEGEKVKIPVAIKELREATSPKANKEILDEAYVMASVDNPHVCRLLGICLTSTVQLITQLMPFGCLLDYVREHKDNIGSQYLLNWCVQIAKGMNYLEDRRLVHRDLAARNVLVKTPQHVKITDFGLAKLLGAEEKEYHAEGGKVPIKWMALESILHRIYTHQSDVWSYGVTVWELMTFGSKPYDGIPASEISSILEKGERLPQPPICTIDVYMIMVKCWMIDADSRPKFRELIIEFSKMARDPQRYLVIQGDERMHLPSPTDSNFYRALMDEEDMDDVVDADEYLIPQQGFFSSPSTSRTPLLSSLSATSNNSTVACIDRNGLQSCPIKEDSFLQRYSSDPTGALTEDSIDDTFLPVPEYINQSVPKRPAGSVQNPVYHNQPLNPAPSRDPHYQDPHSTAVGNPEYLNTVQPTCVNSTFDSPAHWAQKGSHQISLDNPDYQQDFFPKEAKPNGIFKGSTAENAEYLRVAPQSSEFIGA

[2] = target: T2, Epidermal growth factor receptor (Homo sapiens, UniProt P00533, L858R/T790M); assay: Inhibition of recombinant human GST-tagged EGFR L858R/T790M mutant cytoplasmic domain (668 to 1210 residues) expressed in baculovirus expression system using tyrosine04 peptide as substrate after 60 mins in presence of ATP by Z-LYTE assay
T2 sequence (P00533 25-1210 T790M/L858R limits assumed): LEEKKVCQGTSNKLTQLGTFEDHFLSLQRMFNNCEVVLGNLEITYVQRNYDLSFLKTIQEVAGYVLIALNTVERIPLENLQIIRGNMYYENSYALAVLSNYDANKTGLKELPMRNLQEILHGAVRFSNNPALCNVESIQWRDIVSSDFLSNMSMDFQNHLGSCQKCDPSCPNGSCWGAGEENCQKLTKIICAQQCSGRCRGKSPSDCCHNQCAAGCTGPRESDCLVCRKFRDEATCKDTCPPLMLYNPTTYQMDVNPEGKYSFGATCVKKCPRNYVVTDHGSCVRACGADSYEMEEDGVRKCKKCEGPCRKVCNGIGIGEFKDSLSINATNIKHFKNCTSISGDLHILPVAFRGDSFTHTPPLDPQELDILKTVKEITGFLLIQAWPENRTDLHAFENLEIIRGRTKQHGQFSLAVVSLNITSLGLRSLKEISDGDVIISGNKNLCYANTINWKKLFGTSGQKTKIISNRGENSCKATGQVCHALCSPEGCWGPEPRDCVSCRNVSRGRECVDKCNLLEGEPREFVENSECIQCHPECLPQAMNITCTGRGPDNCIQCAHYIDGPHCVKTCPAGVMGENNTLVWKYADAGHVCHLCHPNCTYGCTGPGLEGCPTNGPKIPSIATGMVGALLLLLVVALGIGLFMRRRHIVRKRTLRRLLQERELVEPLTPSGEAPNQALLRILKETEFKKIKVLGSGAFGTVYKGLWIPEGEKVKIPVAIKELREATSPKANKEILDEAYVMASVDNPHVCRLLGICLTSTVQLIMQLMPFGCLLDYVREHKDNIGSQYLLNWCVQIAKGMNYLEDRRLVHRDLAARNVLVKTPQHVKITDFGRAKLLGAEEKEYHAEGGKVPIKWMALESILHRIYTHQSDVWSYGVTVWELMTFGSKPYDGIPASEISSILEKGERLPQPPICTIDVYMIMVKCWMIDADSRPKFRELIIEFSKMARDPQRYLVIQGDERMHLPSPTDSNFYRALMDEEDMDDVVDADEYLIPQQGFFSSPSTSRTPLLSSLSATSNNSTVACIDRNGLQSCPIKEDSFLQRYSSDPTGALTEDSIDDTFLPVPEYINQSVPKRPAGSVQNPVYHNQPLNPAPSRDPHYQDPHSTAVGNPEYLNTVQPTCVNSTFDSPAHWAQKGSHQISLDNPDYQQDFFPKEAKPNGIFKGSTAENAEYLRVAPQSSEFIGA

[3] = target: T2, Epidermal growth factor receptor; assay: Inhibition of EGFR L858R/T790M mutant phosphorylation in human NCI-H1975 cells after 1 hr by ELISA; format: cell-based
[4] = target: T1, Epidermal growth factor receptor; assay: Inhibition of wild-type EGFR phosphorylation in human A431 cells preincubated for 1 hr followed by EGF stimulation measured after 45 mins by ELISA; format: cell-based
NCI-H1975 = assay: Antiproliferative activity against human NCI-H1975 cells harboring EGFR L858R/T790M mutant after 72 hrs by MTT assay; format: functional, cell-based; conditions: NCI-H1975, 72 h
A-431 = assay: Antiproliferative activity against human A431 cells harboring wild-type EGFR after 72 hrs by MTT assay; format: functional, cell-based; conditions: A-431, 72 h
[5] = Selectivity ratio of IC50 for human A431 cells harboring wild-type EGFR to IC50 for human NCI-H1975 cells harboring EGFR L858R/T790M mutant; format: functional

Compound	IC50 [1]	IC50 [2]	IC50 [3]	IC50 [4]	IC50 (NCI-H1975)	IC50 (A-431)	Ratio IC50 [5]
C=CC(=O)NC1CCCN(C(=O)Nc2ccnc(Nc3ccc(N4CCN(C)CC4)cc3OC)n2)C1 (centres undefined)	> 1000 nM	> 1000 nM	–	–	–	–	–
C=CC(=O)Nc1cccc(NC(=O)Nc2ccnc(Nc3ccc(C(=O)N4CCN(C)CC4)cc3OC)n2)c1	972 nM	215 nM	–	–	–	–	–
C=CC(=O)Nc1cccc(Oc2nc(Nc3ccc(N4CCN(C(C)=O)CC4)cc3OC)ncc2C(F)(F)F)c1	67 nM	7 nM	132 nM	1030 nM	117 nM	2530 nM	–
C=CC(=O)Nc1cccc(Oc2nc(Nc3ccc(N4CCN(C)CC4)cc3OC)ncc2Cl)c1	–	–	–	–	27 nM	1240 nM	–
C=CC(=O)Nc1cccc(NC(=O)Nc2ccnc(Nc3ccc(OCCOC)cc3)n2)c1	> 1000 nM	266 nM	–	–	–	–	–
C=CC(=O)Nc1cccc(NC(=O)Nc2ccnc(Nc3ccc(N4CCN(CCF)CC4)cc3OC)n2)c1	158 nM	22 nM	511 nM	> 10000 nM	519 nM	–	–
C=CC(=O)Nc1cccc(NC(=O)C(C)(C)c2ccnc(Nc3ccc(N4CCN(C)CC4)cc3OC)n2)c1	> 1000 nM	> 1000 nM	–	–	–	–	–
C=CC(=O)Nc1cccc(NC(=O)Nc2nc(Nc3ccc(N4CCC(N5CCOCC5)CC4)cc3OC)ncc2Cl)c1	641 nM	37 nM	131 nM	2210 nM	199 nM	2590 nM	–
C=CC(=O)Nc1cccc(NC(=O)Nc2ccnc(Nc3ccc(N4CCC(N5CCOCC5)CC4)cc3OC)n2)c1	86 nM	4 nM	41 nM	6460 nM	37 nM	> 10000 nM	>270
C=CC(=O)Nc1cccc(NC(=O)Nc2ccnc(Nc3ccc(N4CCN(C)CC4)cc3)n2)c1	143 nM	48 nM	3150 nM	–	1930 nM	–	–
C=CC(=O)Nc1cccc(NC(=O)N(C)c2ccnc(Nc3ccc(N4CCN(C)CC4)cc3OC)n2)c1	> 1000 nM	> 1000 nM	–	–	–	–	–
C=CC(=O)Nc1cccc(NC(=O)Nc2nc(Nc3ccc(N4CCC(N5CCOCC5)CC4)cc3OC)ncc2C(F)(F)F)c1	> 1000 nM	270 nM	–	–	–	–	–
C=CC(=O)Nc1cccc(NC(=O)Nc2ccnc(Nc3ccc(OC)cc3OC)n2)c1	348 nM	58 nM	391 nM	–	467 nM	–	–
C=CC(=O)Nc1cccc(NC(=O)Nc2ccnc(Nc3ccc(N4CCC(N(C)C)CC4)cc3OC)n2)c1	45 nM	2 nM	82 nM	1540 nM	107 nM	3380 nM	–
C=CC(=O)Nc1cccc(NC(=O)Nc2ccnc(Nc3ccc(N4CCN(C)CC4)cc3OC)n2)c1	17 nM	17 nM	906 nM	–	525 nM	–	–
C=CC(=O)Nc1cccc(NC(=O)Nc2ccnc(Nc3ccc(C4CCN(C)CC4)cc3)n2)c1	> 1000 nM	510 nM	–	–	–	–	–
C=CC(=O)Nc1cccc(NC(=O)Nc2ccnc(Nc3ccc(N4CCOCC4)cc3OC)n2)c1	225 nM	15 nM	218 nM	> 10000 nM	173 nM	–	–
C=CC(=O)Nc1cccc(NC(=O)Nc2ccnc(Nc3ccc(N(C)C)cc3)n2)c1	462 nM	170 nM	–	–	–	–	–
C=CC(=O)Nc1cccc(NC(=O)Nc2ccnc(Nc3ccc(N4CCC(N5CCN(C)CC5)CC4)cc3OC)n2)c1	80 nM	5 nM	105 nM	2340 nM	106 nM	–	–
C=CC(=O)Nc1cccc(NC(=O)Nc2ccnc(Nc3ccc(C(=O)N4CCOCC4)cc3OC)n2)c1	> 1000 nM	128 nM	–	–	–	–	–
C=CC(=O)Nc1cccc(NC(=O)Nc2ccnc(Nc3ccc(N(CC)CC)cc3OC)n2)c1	183 nM	12 nM	112 nM	> 10000 nM	86 nM	> 10000 nM	–
C=CC(=O)Nc1cccc(NC(=O)C2(C(=O)Nc3ccnc(Nc4ccc(N5CCN(C)CC5)cc4OC)n3)CC2)c1	> 1000 nM	> 1000 nM	–	–	–	–	–
C=CC(=O)Nc1cccc(NC(=O)Nc2ccnc(Nc3ccc(N4CCC(N(CC)CC)CC4)cc3OC)n2)c1	–	–	–	–	31 nM	2010 nM	–
C=CC(=O)Nc1cccc(NC(=O)Nc2ccnc(Nc3ccc(N(C)CCN(C)C)cc3OC)n2)c1	49 nM	19 nM	430 nM	1700 nM	502 nM	3400 nM	–
C=CC(=O)Nc1cccc(NC(=O)Nc2ccnc(Nc3ccc(N4CCOCC4)cc3)n2)c1	644 nM	87 nM	> 10000 nM	> 10000 nM	7520 nM	> 10000 nM	–
C=CC(=O)Nc1cccc(NC(=O)Nc2ccnc(Nc3ccccc3OC)n2)c1	> 1000 nM	192 nM	–	–	–	–	–
C=CC(=O)Nc1cccc(NC(=O)Nc2ccnc(Nc3ccc(C4CCN(C)CC4)cc3OC)n2)c1	273 nM	28 nM	130 nM	5000 nM	75 nM	> 10000 nM	–
